This test relates to TC projections to the ACx. In words: Whole-cell recordings of TC EPSCs in acute thalamocortical slices, bath application of antipsychotics / Drd2 antagonist. Format: cell-based, mouse. The method, then:
Acute primary thalamocortical (TC) slices (400-μm thick) containing the left auditory cortex (ACx) and the left ventral part of the medial geniculate nuclei (MGv) of the thalamus were prepared as previously described^5. […] Primary TC slices were obtained from the left hemisphere by using a slicing angle of 15°.
Whole-cell recordings were obtained from cell bodies of layer (L) 3/4 thalamorecipient neurons in the ACx and thalamic-relay neurons in the MGv. Mice were chosen in a pseudorandom order, without the experimenter's prior knowledge of genotype or treatments. […] Voltage-clamp recordings were made using a Multiclamp 700B (Molecular Devices, Sunnyvale Calif.), digitized (10 kHz), and recorded using the pCLAMP 10.0 software (Molecular Devices, Sunnyvale Calif.). EPSCs were recorded at holding membrane potentials of −70 mV. In all experiments, membrane potentials were corrected for a liquid junction potential of −10 mV. TC excitatory postsynaptic currents (EPSCs) were evoked by current pulses (duration, 100 μs) delivered to the thalamic radiation via tungsten bipolar electrodes. Paired-pulse ratio (PPR) of TC and corticocortical (CC) EPSCs and the NMDAR/AMPAR ratio were measured as described previously^39. To ensure consistent access resistance of the recording electrode during long-term experiments, the peak amplitude of a brief (10-ms) hyperpolarizing test pulse (−5 mV) was monitored, which was given 250 ms after a stimulus. Access resistance (Ra) in recorded neurons was typically 10 to 25 MO.
Acute primary thalamocortical (TC) slices (400 µm thick) containing the auditory cortex (ACx) and the ventral part of the medial geniculate nuclei (MGv) of the thalamus were prepared as previously described^6. […] Primary TC slices were obtained from the left hemisphere by using a slicing angle of 15°.
Whole-cell recordings were obtained from cell bodies of layer (L) 3/4 thalamorecipient neurons in the ACx and thalamic-relay neurons in the MGv. […] Voltage-clamp recordings were made using a Multiclamp 700B, digitized (10 kHz), and recorded using the pCLAMP 10.0 software. EPSCs were recorded at holding membrane potentials of −70 mV. In all experiments, membrane potentials were corrected for a liquid junction potential of −10 mV. TC EPSCs were evoked by current pulses (duration, 100 […]s) delivered to the thalamic radiation via tungsten bipolar electrodes. To ensure consistent access resistance of the recording electrode during long-term experiments, the peak amplitude of a brief (10-ms) hyperpolarizing test pulse (−5 mV) was monitored given 250 ms after a stimulus. Access resistance (Ra) in recorded neurons was typically 10 to 25 MΩ.
In brief, the thalamic radiation of WT mice was stimulated to evoke TC EPSCs with a rise slope of approximately 100 pA/ms. The effect of the antipsychotic agent haloperidol on TC EPSC 30 minutes after its bath application was compared to the preapplication baseline TC EPSC (AH).

We go through 2 molecules from US10441601B2, “Method for treating schizophrenia” (St. Jude Children's Research Hospital, Inc., priority 2015, dated 2019).

In the case of `O=C(CCCN1CCC(O)(c2ccc(Cl)cc2)CC1)c1ccc(F)cc1` [haloperidol], the “Effect on TC EPSCs, haloperidol alone” value (4-month-old miR-338+/− mice) was “increased TC EPSCs”. Further, the “Further effect on TC EPSCs after L-741,626” value (4-month-old miR-338+/− mice, haloperidol applied on top of L-741,626 20 nM) is “not further elevated”. Also, the “Sensitivity of TC EPSCs to haloperidol” value (Df(16)1/+ mice 2 months or younger) was “not sensitive to haloperidol”. Further, the “Sensitivity of TC projections to haloperidol” value (Df(16)1/+ mice, age dependence, haloperidol 1 μM) was “became sensitive to haloperidol (1 µM) only at 3 months of age”; the “Sensitivity of TC projections to haloperidol” value (Dgcr8+/− mice older than 3 months) is on record as “sensitive to haloperidol at older than 3 months of age”; the “Sensitivity of TC projections to haloperidol” value (WT mice, 1.5 to 7 months) is reported as “not haloperidol-sensitive at any age”; the “Sensitivity of TC projections to haloperidol” value (younger Dgcr8+/− mice) is listed as “not sensitive to haloperidol”. Moreover, the “Sensitivity of TC projections to haloperidol, age dependence” value (miR-338+/− mice, 1.5 to 4 months) is listed as “sensitive to haloperidol in an age-independent manner”. Also, the “Effect on deficit of TC EPSCs (smaller TC EPSCs vs WT)” value (older Df(16)1/+ mice, haloperidol 1 μM, 30 minutes after bath application) is given as “rescued that deficit”.
For the molecule `OC1(c2ccc(Cl)cc2)CCN(Cc2c[nH]c3ccccc23)CC1` [L-741,626], for the setting “4-month-old miR-338+/− mice, L-741,626 20 nM”, the “Effect on TC EPSCs” value is “substantially increased”.
